In ChEMBL document CHEMBL1152129, “Quantitative structure-activity relationship and complex network approach to monoamine oxidase A and B inhibitors” (J Med Chem, 2008) one finds IC50, Ratio IC50 and Activity data, which are given here for 31 compounds.

Series [1] addresses T1, Amine oxidase [flavin-containing] A (Homo sapiens, UniProt P21397).
T1 sequence (P21397 whole entry): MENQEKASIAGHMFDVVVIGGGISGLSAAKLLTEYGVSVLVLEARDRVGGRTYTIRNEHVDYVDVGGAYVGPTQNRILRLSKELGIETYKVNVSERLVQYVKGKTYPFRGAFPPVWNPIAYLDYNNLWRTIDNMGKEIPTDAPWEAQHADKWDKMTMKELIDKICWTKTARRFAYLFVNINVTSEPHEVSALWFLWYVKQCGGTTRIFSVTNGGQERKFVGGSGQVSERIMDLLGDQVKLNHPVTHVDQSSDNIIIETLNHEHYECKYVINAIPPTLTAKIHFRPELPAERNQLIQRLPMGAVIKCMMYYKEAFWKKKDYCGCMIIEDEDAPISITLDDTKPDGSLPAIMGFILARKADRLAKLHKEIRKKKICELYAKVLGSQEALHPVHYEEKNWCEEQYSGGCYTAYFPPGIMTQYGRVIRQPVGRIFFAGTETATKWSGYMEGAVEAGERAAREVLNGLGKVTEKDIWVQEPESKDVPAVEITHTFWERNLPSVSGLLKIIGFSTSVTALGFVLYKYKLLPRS
The series is described as follows: Inhibition of human recombinant MAOA by fluorimetric method.

The species entered for a further series is Homo sapiens. The series is described as follows: Selectivity ratio of IC50 for human recombinant MAOA to IC50 for human recombinant MAOB.
The target of series [2] is T2, Amine oxidase [flavin-containing] B (Homo sapiens, UniProt P27338).
T2 sequence (P27338 whole entry): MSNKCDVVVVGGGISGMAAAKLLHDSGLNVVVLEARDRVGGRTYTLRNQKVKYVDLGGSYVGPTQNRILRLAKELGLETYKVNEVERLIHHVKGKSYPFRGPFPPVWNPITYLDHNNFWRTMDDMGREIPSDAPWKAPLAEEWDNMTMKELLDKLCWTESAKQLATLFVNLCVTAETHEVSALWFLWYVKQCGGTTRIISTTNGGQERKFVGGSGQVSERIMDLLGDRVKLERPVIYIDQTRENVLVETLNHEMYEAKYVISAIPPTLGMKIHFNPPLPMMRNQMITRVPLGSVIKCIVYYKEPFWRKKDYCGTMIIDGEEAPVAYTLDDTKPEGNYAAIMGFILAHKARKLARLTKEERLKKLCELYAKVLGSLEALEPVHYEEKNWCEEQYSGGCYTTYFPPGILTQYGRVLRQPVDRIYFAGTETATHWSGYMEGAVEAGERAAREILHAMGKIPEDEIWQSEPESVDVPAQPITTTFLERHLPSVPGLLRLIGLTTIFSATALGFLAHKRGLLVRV
In words: Inhibition of human recombinant MAOB at 50 uM by fluorimetric method.

In series [3] the target is T2, Amine oxidase [flavin-containing] B.
Description: Inhibition of human recombinant MAOB by fluorimetric method
The target of series [4] is T1, Amine oxidase [flavin-containing] A. In words: Inhibition of human recombinant MAOA at 100 uM by fluorimetric method.
Series [5] has as its target T2, Amine oxidase [flavin-containing] B. In words: Inhibition of human recombinant MAOB at 100 uM by fluorimetric method.
For series [6], the target named is T1, Amine oxidase [flavin-containing] A. The series is described as follows: Inhibition of human liver MAOA.
Series [7] deals with T2, Amine oxidase [flavin-containing] B. The series is described as follows: Inhibition of human recombinant MAOB at 1 mM by fluorimetric method. The following applies: 1000 µM.
Series [8] shares this target. In words: Inhibition of human liver MAOB.

Usually IC50 stands for the midpoint of a concentration-inhibition curve.

For `COc1c(OC2CCCCC2=O)ccc2c(C)cc(=O)oc12` (stereo not drawn), the IC50 in series [1] stood at 15.4 µM. Also, the Ratio IC50 in the series filed under Homo sapiens was under 0.31. Also, the Activity result in series [2] was “Not Active”.
On to `Cc1cc(=O)oc2cc(OC3CCCC3=O)ccc12` (stereo not drawn), for which the IC50 in series [3] came out at 5.57 µM; in series [1], 0.0405 µM. In addition, in the series listed under Homo sapiens, the Ratio IC50 worked out at 0.0073.
Consider `COc1c(O)ccc2cc(N)c(=O)oc12`, for which the Activity entry in series [4] and in series [5] was “Not Active” throughout.
Consider `COc1cc(O)cc2oc(=O)ccc12`, for which the Activity entry in [4] and in series [5] was “Not Active” in each case.
Compound `Cc1cc(=O)oc2c(C)c(O)ccc12` had an IC50 in series [3] of 71.3 µM. In addition, in series [4], the Activity result is listed as “Not Active”.
With `COc1cc(OC2CCCCC2=O)cc2oc(=O)ccc12` (stereo not drawn), the IC50 in series [1] came to 20.4 µM. In the series listed under Homo sapiens, the Ratio IC50 was under 0.41. Besides, the Activity entry in [2] was “Not Active”.
For the compound `COc1c(OCC(C)=O)ccc2c3c(c(=O)oc12)CCC3`, the results for the IC50 in [3] and in series [1] were 13 µM and 0.121 µM, respectively. In the series filed under Homo sapiens, the Ratio IC50 worked out at 0.0093.
Take `Cc1cc(=O)oc2c(C)c3oc4c(c3cc12)CCC4`: the IC50 in series [3] was found to be 73.2 µM; in [1] it was 32.8 µM. Moreover, the Ratio IC50 in the series listed under Homo sapiens worked out at 0.45.
Turning to `Cc1cc(=O)oc2c(C)c3oc4c(c3cc12)CCCC4`, the Activity result in series [4] and in [5] was “Not Active” each time.
Take `Cc1c(O)ccc2c3c(c(=O)oc12)CCC3`: the Activity entry in series [4] and in [5] was “Not Active” in each case.
Turning to `COc1c2ccc(=O)oc2cc2occ(C)c12`, the figures for the IC50 in [3] and in [1] were 260 µM and 255 µM, respectively. For the same compound, the Ratio IC50 in the series filed under Homo sapiens is 0.98.
For `COc1c(OCC(C)=O)ccc2c3c(c(=O)oc12)CCCC3` the same measures were 12.1 µM, 0.396 µM and 0.033.
For `CC(=O)COc1ccc2c(oc(=O)c3ccccc32)c1C` the same measures were 28.1 µM, 2.56 µM and 0.091.
Turning to `C=C(Br)COc1ccc2c3c(c(=O)oc2c1C)CCC3`, the IC50 worked out at 0.00118 µM in series [3] and 0.13 µM in [1]. In the series listed under Homo sapiens, the Ratio IC50 came to 110.
Regarding `C=C(Br)COc1ccc2c3c(c(=O)oc2c1C)CCCC3`, the IC50 turned out to be 0.236 µM in series [3] and 0.695 µM in series [1]. Moreover, the Ratio IC50 in the series filed under Homo sapiens was determined as 2.94.
In the case of `CC(=O)COc1ccc2c3c(c(=O)oc2c1C)CCC3`, the IC50 in [3] was determined as 0.165 µM; in series [1], 0.235 µM. Moreover, the Ratio IC50 in the series listed under Homo sapiens is 1.42.
In series [3], `COc1c(O)ccc2c3c(c(=O)oc12)CCCC3` had an IC50 of 50.2 µM. Also, the Activity result in [4] is listed as “Not Active”. Moreover, the Ratio IC50 in the series filed under Homo sapiens was over 1.99.
For the compound `COc1cc(OCC(C)=O)cc2oc(=O)ccc12`, it took 44.1 µM to reach half-maximal inhibition in [3] (IC50). For the same compound, in [4], the Activity result is “Not Active”. Further, the Ratio IC50 in the series filed under Homo sapiens is over 2.27.
For the compound `Cc1cc(=O)oc2c(C)c(OC3CCCC3=O)ccc12` (stereo not drawn), the IC50 was 10.6 µM in series [3] and 0.00716 µM in series [1]. Moreover, in the series filed under Homo sapiens, the Ratio IC50 is 0.00067.
On to `Cc1cc(=O)oc2c(C)c(OC3CCCCC3=O)ccc12` (stereo not drawn), for which the figures for the IC50 in [3] and in series [1] were 3.87 µM and 0.4 µM, respectively. For the same compound, in the series listed under Homo sapiens, the Ratio IC50 is 0.1.
Regarding `COc1c2occc2cc2cc(N)c(=O)oc12`, the values for the IC50 in [3] and in series [1] were 16.5 µM and 12.2 µM, respectively. Besides, the Ratio IC50 in the series listed under Homo sapiens came out at 0.74.
For `COc1c(OCC(C)=O)ccc2c1oc(=O)c1ccccc12` the same measures were 9.36 µM, 11.9 µM and 1.27.
With `CN(C)/N=N/c1[nH]cnc1C(N)=O` [DACARBAZINE], the Activity entry in [6] and in [7] was “Not Active” each time.
For `C[C@H]1O[C@@H](O[C@H]2[C@@H](O)C[C@H](O[C@H]3[C@@H](O)C[C@H](O[C@H]4CC[C@@]5(C)[C@H](CC[C@@H]6[C@@H]5CC[C@]5(C)[C@@H](C7=CC(=O)OC7)CC[C@]65O)C4)O[C@@H]3C)O[C@@H]2C)C[C@H](O)[C@@H]1O` [DIGITOXIN], the Activity result in [4], in series [6] and in series [8] was “Not Active” each time.
For the compound `C[C@H]1O[C@@H](O[C@H]2[C@@H](O)C[C@H](O[C@H]3[C@@H](O)C[C@H](O[C@H]4CC[C@@]5(C)[C@H](CC[C@@H]6[C@@H]5C[C@@H](O)[C@]5(C)[C@@H](C7=CC(=O)OC7)CC[C@]65O)C4)O[C@@H]3C)O[C@@H]2C)C[C@H](O)[C@@H]1O` [DIGOXIN], the Activity entry in series [4], in series [6] and in series [8] was “Not Active” each time.
Consider `Cc1cc(=O)oc2cc(O)ccc12` [HYMECROMONE], for which, in series [3], the IC50 worked out at 80.4 µM. In addition, in series [4], the Activity result is “Not Active”.
With `C[C@@H]1O[C@@H](O[C@H]2C[C@](O)(C(=O)CO)Cc3c(O)c4c(c(O)c32)C(=O)c2ccccc2C4=O)C[C@H](N)[C@@H]1O` [MEDORUBICIN], in series [7], the Activity entry was “Not Active”.
On to `CN(Cc1cnc2nc(N)nc(N)c2n1)c1ccc(C(=O)N[C@@H](CCC(=O)O)C(=O)O)cc1` [METHOTREXATE], for which the Activity result in series [7] is recorded as “Not Active”.
Consider `COC(F)(F)C(Cl)Cl` [METHOXYFLURANE], for which the Activity entry in series [7] was “Not Active”.
For `O=C(NCCN1CCOCC1)c1ccc(Cl)cc1` [MOCLOBEMIDE], the Activity entry in series [7] is “Not Active”.
Take `CC(C)(S)[C@@H](N)C(=O)O` [PENICILLAMINE]: the Activity entry in [4], in series [6] and in series [8] was “Not Active” each time.
